Results published in paper PMC7402526, “An in vitro quantitative systems pharmacology approach for deconvolving mechanisms of drug-induced, multilineage cytopenias” (PLoS Computational Biology, 2020).

Key:
[1] = system: neutrophils (neutrophil-lin); assay: MLTA, Neut: concentration-response and QSP model fit; assay type: cell-based, human; conditions: Homo sapiens, Neutrophil, 144 h
Outline: (§1)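 Freeze-thawed primary human bone marrow CD34+ cells were cultured 6 days in SFEM II with a cytokine cocktail, drug added on day 0. Subsets were counted by 17-parameter flow cytometry with TruCount beads and normalized to vehicle wells. An Emax QSP model (Emax 0–2, L1 regularization) was fitted to these counts.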

[2] = system: total dead cells (totalDeadCells); assay: MLTA, total dead cells concentration-response; assay type: cell-based; conditions: Homo sapiens, 144 h, 6 days, normalized to vehicle control, read-out: total_dead normalized cell count
Method: A custom optimized cytokine cocktail was developed using commercially available cytokines (Peprotech, New Jersey) to facilitate simultaneous multi-lineage differentiation and self-renewal of freeze-thawed primary human bone marrow-derived CD34+ cells in SFEM II media (cells and media from StemCell Technologies, Vancouver). Cultures were carried out in ultra-low attachment 96-well plates (Corning, New York) with test article added on day 0 and cultured at 37°C, 85% relative humidity, and 5% CO2 for six days before interrogating drug impact via 17-parameter flow cytometry.
The flow cytometry panel used to define hematopoietic subsets was composed of CD34-PECy7, CD90-PECY5, CD38-AF488, CD371-PE, CD45Ra-BV421, CD14-BV605, CD42b-AF647, CD10-PEDazzle594, CD235a-PerCPCy5.5 (BioLegend, California), CD15-BUV395, CD41a-APCH7, CD71-BV786 (BD Biosciences, California), and DAPI for dead cell exclusion (ThermoFisher, California). In short, Day 6 cells were harvested, FcR-blocked (FcR binding inhibitor, ThermoFisher), surface-stained, then analyzed in a buffer containing TruCount Control Beads using a BD LSR Fortessa SORP fitted with a high-throughput sampler (BD Biosciences, California). Data was analyzed in Diva 6.0.2 and exported to CSV where after all cell data was transformed to cell per mL then normalized on a per-donor basis to untreated control wells to determine drug impact.
Donor material was collected and cultured as described above. The number of replicate donor samples per drug ranged from 2–7 and varied per drug (S1 Table). Drug treatment was added at time 0 and cells were maintained in culture for 6 days. Concentrations tested for each drug compound are contained in S1 Table. Concentrations were selected to span a range that is clinically useful. Following treatment, cell populations were measured using flow cytometry. We extracted cell counts from flow cytometry data, normalized to bead counts, and corrected for well volume.
Each well was normalized to the average of six vehicle control wells. For drugs that were tested across multiple runs of the assay, vehicle-normalized donor data were pooled, and we used the average of these pooled data for further modeling. Normalized data used as model inputs are included in S1 Table.

[3] = system: hematopoietic stem cells (HSCs); assay: Multi-lineage toxicity assay (MLTA), HSCs: concentration-response and QSP model fit; assay type: cell-based, human; design: EmaxAP,HSC / EmaxT,HSC / Emax_drug_HSC: unitless, 0–2; ≤1 anti-proliferative, >1 adds cell killing
Outline: as §1

[4] = system: monocyte progenitors (monocyte prog); assay: MLTA, MonoP: concentration-response and QSP model fit; assay type: cell-based, human; conditions: Homo sapiens, Monocyte, 144 h
Outline: (§2)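 Freeze-thawed primary human bone marrow CD34+ cells were grown in SFEM II with a multi-lineage cytokine cocktail, drug added day 0, six days at 37°C. Lineage counts came from 17-parameter flow with TruCount beads, vehicle-normalized per donor, then fitted by an Emax-based QSP model.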

[5] = system: early erythroid cells (Eryth I); assay: MLTA, ErythI: concentration-response and QSP model fit; assay type: cell-based, human; conditions: Homo sapiens, 144 h
Outline: as §2

monocytes (monocyte-lin) = assay: MLTA, Mono: concentration-response and QSP model fit; assay type: cell-based, human; conditions: Homo sapiens, Monocyte, 144 h
Outline: as §2

[6] = system: late erythroid cells (Eryth II); assay: MLTA, ErythII: concentration-response and QSP model fit; assay type: cell-based, human; conditions: Homo sapiens, 144 h
Outline: as §1

[7] = QSP model fit of 6-day MLTA data

CN(C)C(=O)c1cc2cnc(Nc3ccc(N4CCNCC4)cn3)nc2n1C1CCCC1 [ribociclib]
EC50 [1, 7]: 178 nM | activity at 0.0002 µM ([1]; dose 0.2 nM, 6 days, normalized to vehicle control, read-out: Neut normalized cell count): 77.2% | activity at 0.001 µM ([1]; dose 1 nM, 6 days, normalized to vehicle control, read-out: Neut normalized cell count): 83.1% | activity at 0.005 µM ([1]; dose 5 nM, 6 days, normalized to vehicle control, read-out: Neut normalized cell count): 96.4% | activity at 0.025 µM ([1]; dose 25 nM, 6 days, normalized to vehicle control, read-out: Neut normalized cell count): 65.4% | activity at 0.1 µM ([1]; dose 100 nM, 6 days, normalized to vehicle control, read-out: Neut normalized cell count): 52.7% | activity at 0.5 µM ([1]; dose 500 nM, 6 days, normalized to vehicle control, read-out: Neut normalized cell count): 25.1% | activity at 2.5 µM ([1]; dose 2500 nM, 6 days, normalized to vehicle control, read-out: Neut normalized cell count): 4.85% | Emax ([1]; parameter from QSP model fitting, read-out: Emax_drug_Neut): 13.9% | activity at 0.0002 µM ([2]; dose 0.2 nM): 117% | activity at 0.001 µM ([2]; dose 1 nM): 117% | activity at 0.005 µM ([2]; dose 5 nM): 129% | activity at 0.025 µM ([2]; dose 25 nM): 81.1% | activity at 0.1 µM ([2]; dose 100 nM): 60% | activity at 0.5 µM ([2]; dose 500 nM): 32.1% | activity at 2.5 µM ([2]; dose 2500 nM): 27.8% | EC50 ([3]; Homo sapiens, Hematopoietic stem cell, 144 h, QSP model fit of 6-day MLTA data): 373 nM | activity at 0.0002 µM ([3]; Homo sapiens, Hematopoietic stem cell, 144 h, dose 0.2 nM, 6 days, normalized to vehicle control, read-out: HSCs normalized cell count): 90.3% | activity at 0.001 µM ([3]; Homo sapiens, Hematopoietic stem cell, 144 h, dose 1 nM, 6 days, normalized to vehicle control, read-out: HSCs normalized cell count): 93.9% | activity at 0.005 µM ([3]; Homo sapiens, Hematopoietic stem cell, 144 h, dose 5 nM, 6 days, normalized to vehicle control, read-out: HSCs normalized cell count): 107% | activity at 0.025 µM ([3]; Homo sapiens, Hematopoietic stem cell, 144 h, dose 25 nM, 6 days, normalized to vehicle control, read-out: HSCs normalized cell count): 98.7% | activity at 0.1 µM ([3]; Homo sapiens, Hematopoietic stem cell, 144 h, dose 100 nM, 6 days, normalized to vehicle control, read-out: HSCs normalized cell count): 89.4% | activity at 0.5 µM ([3]; Homo sapiens, Hematopoietic stem cell, 144 h, dose 500 nM, 6 days, normalized to vehicle control, read-out: HSCs normalized cell count): 67.7% | activity at 2.5 µM ([3]; Homo sapiens, Hematopoietic stem cell, 144 h, dose 2500 nM, 6 days, normalized to vehicle control, read-out: HSCs normalized cell count): 35.2% | Emax ([3]; Homo sapiens, Hematopoietic stem cell, 144 h, parameter from QSP model fitting, read-out: Emax_drug_HSC): 48.9% | EmaxAP,HSC ([3]; anti-proliferation component, min(1, EmaxT)): 0.489 | activity at 0.0002 µM ([4]; dose 0.2 nM, 6 days, normalized to vehicle control, read-out: MonoPs normalized cell count): 100% | activity at 0.001 µM ([4]; dose 1 nM, 6 days, normalized to vehicle control, read-out: MonoPs normalized cell count): 108% | activity at 0.005 µM ([4]; dose 5 nM, 6 days, normalized to vehicle control, read-out: MonoPs normalized cell count): 99.8% | activity at 0.025 µM ([4]; dose 25 nM, 6 days, normalized to vehicle control, read-out: MonoPs normalized cell count): 80.2% | activity at 0.1 µM ([4]; dose 100 nM, 6 days, normalized to vehicle control, read-out: MonoPs normalized cell count): 45.6% | activity at 0.5 µM ([4]; dose 500 nM, 6 days, normalized to vehicle control, read-out: MonoPs normalized cell count): 16.7% | activity at 2.5 µM ([4]; dose 2500 nM, 6 days, normalized to vehicle control, read-out: MonoPs normalized cell count): 6.97% | Emax ([4]; parameter from QSP model fitting, read-out: Emax_drug_MonoP): 0.0352% | activity at 0.0002 µM ([5]; dose 0.2 nM, 6 days, normalized to vehicle control, read-out: ErythI normalized cell count): 101% | activity at 0.001 µM ([5]; dose 1 nM, 6 days, normalized to vehicle control, read-out: ErythI normalized cell count): 102% | activity at 0.005 µM ([5]; dose 5 nM, 6 days, normalized to vehicle control, read-out: ErythI normalized cell count): 108% | activity at 0.025 µM ([5]; dose 25 nM, 6 days, normalized to vehicle control, read-out: ErythI normalized cell count): 85.8% | activity at 0.1 µM ([5]; dose 100 nM, 6 days, normalized to vehicle control, read-out: ErythI normalized cell count): 69% | activity at 0.5 µM ([5]; dose 500 nM, 6 days, normalized to vehicle control, read-out: ErythI normalized cell count): 31.2% | activity at 2.5 µM ([5]; dose 2500 nM, 6 days, normalized to vehicle control, read-out: ErythI normalized cell count): 9.42% | Emax ([5]; parameter from QSP model fitting, read-out: Emax_drug_ErythroidI): 0.05% | EC50 (monocytes (monocyte-lin); [7]): 180 nM | activity at 0.0002 µM (monocytes (monocyte-lin); dose 0.2 nM, 6 days, normalized to vehicle control, read-out: Mon normalized cell count): 84.3% | activity at 0.001 µM (monocytes (monocyte-lin); dose 1 nM, 6 days, normalized to vehicle control, read-out: Mon normalized cell count): 96.7% | activity at 0.005 µM (monocytes (monocyte-lin); dose 5 nM, 6 days, normalized to vehicle control, read-out: Mon normalized cell count): 92.1% | activity at 0.025 µM (monocytes (monocyte-lin); dose 25 nM, 6 days, normalized to vehicle control, read-out: Mon normalized cell count): 78.1% | activity at 0.1 µM (monocytes (monocyte-lin); dose 100 nM, 6 days, normalized to vehicle control, read-out: Mon normalized cell count): 55.4% | activity at 0.5 µM (monocytes (monocyte-lin); dose 500 nM, 6 days, normalized to vehicle control, read-out: Mon normalized cell count): 31.4% | activity at 2.5 µM (monocytes (monocyte-lin); dose 2500 nM, 6 days, normalized to vehicle control, read-out: Mon normalized cell count): 8.51% | Emax (monocytes (monocyte-lin); parameter from QSP model fitting, read-out: Emax_drug_Mono): 19.5% | EC50 ([6]; QSP model fit of 6-day MLTA data, read-out: EC50ErythII): 222 nM | activity at 0.0002 µM ([6]; dose 0.2 nM, 6 days, normalized to vehicle control, read-out: ErythII normalized cell count): 84.3% | activity at 0.001 µM ([6]; dose 1 nM, 6 days, normalized to vehicle control, read-out: ErythII normalized cell count): 97.7% | activity at 0.005 µM ([6]; dose 5 nM, 6 days, normalized to vehicle control, read-out: ErythII normalized cell count): 113% | activity at 0.025 µM ([6]; dose 25 nM, 6 days, normalized to vehicle control, read-out: ErythII normalized cell count): 81.4% | activity at 0.1 µM ([6]; dose 100 nM, 6 days, normalized to vehicle control, read-out: ErythII normalized cell count): 79.8% | activity at 0.5 µM ([6]; dose 500 nM, 6 days, normalized to vehicle control, read-out: ErythII normalized cell count): 66.7% | activity at 2.5 µM ([6]; dose 2500 nM, 6 days, normalized to vehicle control, read-out: ErythII normalized cell count): 33.6% | Emax ([6]; parameter from QSP model fitting, read-out: Emax_drug_ErythroidII): 10.8%
